From patent US4656178A (priority 1985, dated 1987)
Where a name gives a salt, the structure may show the parent alone.

Tests used:
lethal dose in rabbits = type: in vivo
Procedure: (§1) The resorptive effect and toxicity of the preparation according to the present invention were studied on mice, rats, rabbits and dogs.
(§2) In doses of 5-6 mg/kg intravenously the preparation according to the present invention causes death of dogs and in doses of 3-4 mg/kg it is lethal for rabbits.

solubility = type: physicochemical
Procedure: The aerial portion and roots (tubers) of the plant Acontium leucostomum are disintegrated. The disintegrated air-dry raw material is wetted with a 3% solution of sodium carbonate and 1 hour thereafter is poured with chloroform. 12 hours afterwards the chloroform is drained and the plant is treated with a fresh portion of chloroform. There are thus obtained 8 extracts which are combined and evaporated under vacuum to a small volume. From the concentrated chloroform extract the alkaloids are recovered by means of a 2% sulphuric acid. The combined acid extracts are washed with chloroform, alkalinized by soda and extracted with chloroform. The chloroform extract is evaporated and the residue is treated with acetone to give a commercial product--lappaconitine which is recrystallized from methanol. Methanolic solution of lappaconitine and hydrobromic acid are mixed. […] M.p. is 216°-220° C., [α]D^24 =+27 (alcohol); C32 H44 O8 N2.HBr, molecular weight= 664.9.

[1] = 6-month histological toxicity, rabbits; type: in vivo; conditions: intravenous, 0.1 and 0.5 mg/kg, 6 months
[2] = system: coronary blood circulation; assay: volume rate of the coronary blood flow in cats; type: in vivo
Procedure: The effect of the pharmaceutical composition according to the present invention on the coronary blood circulation was studied in acute experiments on cats by the method of recording of the volume rate of the coronary blood flow. […] The introduction of 1 mg/kg of the preparation results in an increased volume rate of the coronary blood flow by 30-80% during a long time.

[3] = duration of antiarrhythmic effect compared with quinidine and novocainamide; conditions: in vivo
Procedure: (§3) The duration of the antiarrhythmic action of the preparation was studied on rats intravenously administered with aconitine 1, 2, 4, 6, 24 and 48 hours after the preparation administration per os.

[4] = system: potassium channels of the membrane of neurons; assay: ion currents through the somatic membrane of mollusc neurons: potassium channels; type: cell-based, mollusca
Text: The study of the effect produced by the preparation of the present invention on ion currents through the somatic membrane of neurons has shown that it selectively interacts with calcium and potassium channels of the membrane of neurons of mollusca, whereby the currents along these channels are suppressed.

[5] = sugar, protein and enzymes in rats' blood; type: in vivo; conditions: 1 mg/kg, single and lasting administration
aconitine arrhythmia [6] = assay: animal or person; type: in vivo, rats
Procedure: The assessment of the antiarrhythmic activity of the preparation was effected in acute and chronical experiments on rats, rabbits, cats and dogs. Various experimental models of arrhythmia were also used.
(§4) The atrioventricular arrhythmia caused by aconitine is one of the most reliable models for forecasting the efficiency of the antiarrhythmic action of the novel preparation in clinics. The experiments were conducted on both narcotized and non-narcotized animals. The preparation was administered per os, intramuscularly, intraperitoneally and intravenously 5 to 15 minutes prior to or 3-5 minutes after the administration of aconitine.
In doses of 0.2-0.5 mg/kg the preparation of this invention prevents the appearance of aconitine arrhythmia in 100% of the rats. […] Under similar experimental conditions a preliminary administration of novocainamide in the dose of 60 mg/kg intravenously produced an antiarrhythmic effect in 50% of the animals.

[7] = system: central adreno- and cholinergic processes; assay: central effects (sedative, adreno-, cholinergic, serotonin); conditions: in vivo
[8] = system: cardiac arrhythmia caused by ligation of the descending branch of the left coronary artery; assay: cardiac arrhythmia caused by ligation of the descending branch of the left coronary artery (Harris method) in dogs; type: in vivo
Procedure: The effect of the preparation according to the present invention on the cardiac arrhythmia caused by ligation of the descending branch of the left coronary artery by the Harris method was studied in experiments on dogs. The preparation according to the present invention was intravenously administered on the first and second post-operative days. Preliminarily, prior to every experiment 30 to 45 minutes before the administration of the preparation the background changes of the dogs' electrocardiogram (ECG) were recorded. […] In 40% thereof a full suppression of ectopic contractions was noticed for 3-3.5 hours, whereafter arrhythmia appeared with the intensity thereof not reaching the initial background during 7 hours.

[9] = pharmacological effects, summary; conditions: in vivo
aconitine arrhythmia [10] = assay: prevention of aconitine arrhythmia in rats and dogs; type: in vivo
Procedure: as §4, §3

[11] = infiltration anesthesia in rabbits (intracutaneous); type: in vivo; conditions: 0.01-0.05% and 0.1% solutions
Procedure: The local anesthetic effect of the preparation was studied on 14 intact rabbits. […] The results of the experiments on determination of the ability of the preparation to cause infiltration anesthesia have shown that 10-15 minutes after intracutaneous administration, to rabbits, of 0.01-0.05% and 0.1% solutions of the preparation anesthesia occurs which is characterized by an increased threshold of a pain irritation; the duration of the effect is 20 to 48 hours. Under the same conditions of the experiment, the local anesthetic effect of a 0.5% solution of novocaine lasts for 90 minutes on the average.

frog's heart = assay: amplitude of cardiac contractions of isolated frog's heart (Schtraube); conditions: concentration of 10^-6 -5.10^-5 g/ml
Text: To find out a negative inotropic effect on the heart tissue, two series of experiments have been carried out:
(1) the study of the effect of the preparation of this invention on the amplitude of the cardiac contractions of a frog's heart isolated according to Schtraube;

lethal dose in dogs = type: in vivo; conditions: intravenous
Procedure: as §1, §2

[12] = resorptive effect and toxicity (general state); type: in vivo, mice, rats, rabbits and dogs
Text: as §1

[13] = system: cardiotoxic effect of the preparation; assay: sodium bicarbonate at cardiotoxic effect of the preparation in dogs; conditions: toxic doses

CCN1CC2(OC(=O)c3ccccc3NC(C)=O)CCC(OC)C34C1C(CC23)C1(O)CC(OC)C2CC4C1(O)C2OC (centres unmarked) [lappaconitine hydrobromide]
lethal dose (lethal dose in rabbits): 3 to 4 mg/kg | solubility (solubility): soluble in water, alcohol, better in methanol | destructive changes of inner organs and tissues [1]: no destructive changes on the part of inner organs and tissues | animals with increased coronary blood flow ([2]; 0.5 mg/kg): 40% | increase of coronary blood flow ([2]; 0.5 mg/kg, in 40% of the animals): 15-30% | increase of volume rate of coronary blood flow ([2]; 1 mg/kg, during a long time): 30-80% | effect on coronary blood flow ([2]; intravenous, 0.1 mg/kg): does not provide any effect | duration of effect relative to quinidine and novocainamide [3]: 10 times | effect on currents along potassium channels [4]: suppressed | content of sugar, protein and enzymes in blood [5]: does not result in substantial changes | minimal effective dose (aconitine arrhythmia [6]; Rattus norvegicus, read-out: dose from which the antiarrhythmic effect is revealed): 0.03 mg/kg | animals in which appearance of aconitine arrhythmia is prevented (aconitine arrhythmia [6]; doses of 0.2-0.5 mg/kg, rats): 100% | antiarrhythmic index (LD50/ED50) (aconitine arrhythmia [6]; prophylactic effect, aconitine arrhythmia): 118.0 | central sedative effect [7]: weak central sedative effect | effect on central adreno- and cholinergic processes [7]: does not provide any substantial effect on central adreno- and cholinergic processes | serotonin-negative effect [7]: weak | animals with antiarrhythmic effect ([8]; 0.5 mg/kg intravenously): 86% | animals with 100% antiarrhythmic effect over 5 hours ([8]; 1 mg/kg): 60% | animals with full suppression of ectopic contractions for 3-3.5 hours ([8]; 1 mg/kg): 40% | animals with full inhibition of ventricular extrasystole ([8]; 1 mg/kg intravenously): 100% | duration of full suppression of ectopic contractions ([8]; 1 mg/kg, in 40% of the animals): 3 to 3.5 h | time during which reappearing arrhythmia does not reach the initial background ([8]; 1 mg/kg, in 40% of the animals): 7 h | duration of 100% antiarrhythmic effect ([8]; 1 mg/kg, in 60% of the animals): over 5 hours | heart beat rate ([8]; accompanying reduction or arresting of arrhythmia, all experiments): reduction of the heart beat rate | time of appearance of antiarrhythmic effect ([8]; after intravenous administration): 5 to 15 min | activity relative to novocainamide (times more active) ([8]; dog, in vivo): 70 times | duration and rapidity of effect relative to novocainamide ([8]; dog, in vivo): considerably superior to it in the duration of the effect, but inferior to novocainamide in the rapidity of occurrence of the antiarrhythmic effect | relationship of effect to dose ([8]; dog, in vivo): in a direct relationship with the administered dose | moderate additional effects [9]: moderate coronarydilating, spasmolytic, local anesthetic, anti-inflammatory and sedative effects | reduction of systemic arterial pressure and negative inotropic effect [9]: not accompanied by reduction of the systemic arterial pressure, and a negative inotropic effect on the cardiac tissue | duration of antiarrhythmic action (aconitine arrhythmia [10]; aconitine model): up to 24 hours | animals in which development of aconitine arrhythmia is fully prevented (aconitine arrhythmia [10]; intravenous, 0.2-0.3 mg/kg, narcotized rats and dogs): 100% | animals in which development of aconitine arrhythmia is fully prevented (aconitine arrhythmia [10]; peroral, 1-2 mg/kg, dogs and intact rats): 100% | duration of infiltration anesthesia [11]: 20 to 48 h | onset of infiltration anesthesia ([11]; intracutaneous): 10 to 15 min | negative inotropic effect, isolated heart (frog's heart): does not provide a negative inotropic effect | lethal dose (lethal dose in dogs): 5 to 6 mg/kg | changes in general state of animals ([12]; 0.1-1 mg/kg intravenously, 1-5 mg/kg intraperitoneally, 5-20 mg/kg per os): no considerable changes in the general state of the animals are observed | signs in mice and rats ([12]; higher doses, 5 minutes on average after administration): adynamia, delayed responses, weakening of the muscular tension, rarification and deepening of breathing, lowering of the body temperature | additional signs ([12]; sublethal and lethal doses): hypersalivation, diarrhea, acute disturbances of breathing | arterial pressure in overdosing [13]: reduction of the arterial pressure
